Measured values published in article doi:10.1101/2024.10.11.617883, “A Streamlined High-Throughput LC-MS Assay for Quantifying Peptide Degradation in Cell Culture” (bioRxiv, 2024).
Read-outs that look alike come from different tables or passages of the source. Each block holds one compound with its values, some of them ahead of it.

Assays:
in vitro = conditions: human, cells or culture medium
Method: (§1) Human mesenchymal stem cells (hMSCs) (Rooster Bio, LOT 310368) at passage 3 were seeded into 24 well plates at a seeding density of 75,000 cells per well in 1mL of RoosterBasal-MSC-CC (RoosterBio, SU-022) containing RoosterBooster-MSC (RoosterBio SU-003). After 24 hour the media was changed, and peptide library AcβA-RGEFV-X-NH2 was added to the cell media for a final concentration of 37 μM per peptide. Each Library was tested in three times, each in triplicate with three technical repeats for a total of 27 wells. 40 μl samples were collected from the media at hours 0, 1, 4, 8, 24, and 48 in duplicate.
(§2) In-between timepoints, one set of samples was loaded directly within the LC-MS and measured as soon as possible, then stored at 4°C. The second set of samples was immediately frozen at −80°C. After 48 hours, samples were kept frozen and thawed just prior to LC-MS, and 4μL of acetic acid was added to each well. After three weeks the samples were tested again.
(§3) From each sample, 10 μL of crude solution was introduced by the LC-MS through an Thermo Scientific Vanquish LC System (Thermo Fisher Scientific) which outputted to a Thermo Scientific LTQ XL Linear Ion Trap Mass Spectrometer (Thermo Fisher Scientific). The sampled mixture was trapped on a column (ProntoSIL C18 AQ, 120 Å, 3 μm, 2.0 × 50 mm HPLC Column, PN 0502F184PS030, MAC-MOD Analytical Inc.). The samples were loaded onto the column with a solvent containing acetonitrile/water, 5:95 (v/v) containing 1% acetic acid at a flow rate of 300 μL/min and held for one minute. The sample was then eluted from the column with a linear gradient of 5–40% Solvent B (1% acetic acid in acetonitrile) at the same flow rate for five minutes. This was followed by a 1 min ramp up to 100% solvent B, where it was re-equilibrated with solvent A (1% acetic acid) to 5% solvent B over the course of 1 min and held there for 2 min. The column temperature was a constant 29 °C. The mass spectrometer was operated in positive ion mode. Using a heated ESI, the source voltage was set to 4.1 kV, and the capillary temperature was 350 °C.
(§4) Data analysis was performed on Xcalibur Software (Thermo Scientific). Peptides were identified automatically using the Thermo Xcalibur Processing Setup window where the mass (m/z) ±0.5 AMU and expected retention times for each quantified peptide were inputted. This was later used to isolate individual peptide species from the total ion count (TIC) trace using the Thermo Xcalibur Quan Setup window, where the area under the curve was calculated and visually inspected for accuracy. […] The integrated peak area of the peptide of interest was divided by the NH2-βF(βA)6-Amide internal standard to create an area ratio. Relative amounts of a peptide of peptide were then calculated by normalized all values to their corresponding time zero area ratio. Calculated data was visualized using RStudio.

[1] = Retention on the reverse-phase LC-MS column; assay type: physicochemical
Method: The column temperature was a constant 29 °C. The mass spectrometer was operated in positive ion mode.
Since salts from cell culture media adversely impact ionization and foul the MS, we send the mobile phase from the first 1.5 minutes of LCMS to waste prior to ionization to prevent salt accumulation in the mass spectrometer. Accordingly, peptides and internal standards which elute before the gradient begins are not suitable for quantification since they will not be analyze by the mass spectrometer. N-terminal acetylation, the addition of a phenylalanine, or β-homophenylalanine improves retention time by increasing they hydrophobicity of the polypeptide, which increases the affinity to the column (Figure 2A). After 48 hours of degradation, three internal standards candidates had both good retention times and less than 10% degradation (Figure 2B): 1) Ac-βA6-Amide, 2) NH2-βFβA6-Amide, and 3) Ac-FβA6-Amide. The ability of molecules to be identified in mass spectrometry is dependent on their propensity to become ionized, and the Ac-βA6-Amide standard was excluded due to weak signal intensity of the LC-MS (not shown), likely due to the lack of charged groups. […]

[2] = human, cells or culture medium
Method: as §1, §2, §3, §4

[3] = system: human mesenchymal stem cells (hMSCs)
Method: as §1, §2, §3, §4

metabolised at 48 h (in vitro): < 10%
SMILES: CC(=O)N[C@@H](Cc1ccccc1)C(=O)NCCC(=O)NCCC(=O)NCCC(=O)NCCC(=O)NCCC(=O)NCCC(N)=O [Ac-FβA6-Amide]

metabolised at 48 h (in vitro): < 10%
SMILES: CC(=O)NCCC(=O)NCCC(=O)NCCC(=O)NCCC(=O)NCCC(=O)NCCC(N)=O [Ac-βA6-Amide]

SMILES: NCCC(=O)NCCC(=O)NCCC(=O)NCCC(=O)NCCC(=O)NCCC(N)=O [NH2-(βA)6-Amide]
affinity to the LC-MS column (retention) ([1]; ProntoSIL C18 AQ, gradient begins after 1 min at 5% B, first 1.5 minutes sent to waste): eluting before the chromatography gradient begins

peptide elution time ([1]; ProntoSIL C18 AQ 2.0 x 50 mm, 5% B held 1 min then 5-40% acetonitrile (1% acetic acid) over 5 min, 300 μL/min, 29 °C, retention tied to hydrophobicity and column affinity): 2.68 min
metabolised at 48 h [2]: < 10%
remaining at 48 h [2]: > 92%
time stable in cell culture [3]: 48 h
SMILES: NC(=O)CCNC(=O)CCNC(=O)CCNC(=O)CCNC(=O)CCNC(=O)CCNC(=O)C[C@@H](N)Cc1ccccc1 [NH2-βFβA6-Amide]
